Assay results: ChEMBL document CHEMBL1201862, “PubChem BioAssay data set” (2004)
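Exposure lasted 48 hours, with cells grown in 96-well plates and compounds tested at five concentrations. GI50 = concentration required for 50% inhibition of growth.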 The source made the active and inactive calls. Rule as the data show it: active = GI50 up to about 1.1 µM and inactive = higher. Where a SMILES comes first, the peptide text is derived from it. The star is where a group is joined. Boc = CC(C)(C)OC(=O)*

Legend:
Assay in all cases: growth of human tumour cells (NCI), 48 h
[1] = system: SK-MEL-2
[2] = system: Hs-578T
[3] = system: OVCAR-4
[4] = system: NCI-H23
[5] = system: HCT-15
[6] = system: CCRF-CEM
[7] = system: SR
[8] = system: RXF 393
[9] = system: U-251
[10] = system: NCI-H226
[11] = system: OVCAR-5
[12] = system: SK-MEL-5
[13] = system: Malme-3M
[14] = system: HL-60
[15] = system: SW-620
[16] = system: SN12C
[17] = system: UACC-62
[18] = system: SNB-75
[19] = system: MDA-MB-231
[20] = system: HCC 2998

Measured: GI50

Cc1ccnc(NS(=O)(=O)c2ccc(N=[N+]=[N-])cc2)n1
inactive: [1] > 100 µM | [2] > 100 µM | [3] > 100 µM | [4] > 100 µM | [6] > 21.4 µM | [7] 1.34 µM | [8] > 100 µM | [9] > 100 µM | [10] > 100 µM | [11] > 100 µM | [12] > 100 µM | [13] > 67.9 µM | [14] > 46.9 µM | [15] > 100 µM | [16] > 100 µM | [17] > 100 µM | [18] > 100 µM
> 100 µM: [5]

N#Cc1c(-c2ccc([N+](=O)[O-])cc2)cc(-c2ccc(Nc3ccnc4cc(C(F)(F)F)ccc34)cc2)[nH]c1=O
> 100 µM: [5]
inactive: [1] > 100 µM | [3] > 100 µM | [4] > 100 µM | [6] > 100 µM | [7] > 100 µM | [8] > 100 µM | [9] 10 µM | [10] > 100 µM | [19] 16.3 µM | [11] 21.4 µM | [12] > 100 µM | [13] > 100 µM | [15] > 100 µM | [16] > 100 µM | [20] > 100 µM | [17] > 100 µM | [18] > 100 µM

CC(C)(C)OC(=O)NC(Cc1ccc(O)cc1)C(=O)N1CCCC1C(=O)O (stereo not drawn) (Boc-Tyr-Pro-OH; configuration not given here)
inactive: [1] > 100 µM | [3] > 100 µM | [4] > 100 µM | [6] > 100 µM | [7] > 100 µM | [8] > 100 µM | [9] > 100 µM | [10] > 100 µM | [11] > 100 µM | [12] > 100 µM | [13] > 100 µM | [14] > 100 µM | [15] > 100 µM | [16] > 100 µM | [20] > 100 µM | [17] > 100 µM | [18] > 100 µM
> 100 µM: [5]

CS(=O)(=O)Nc1ccc(N2Cc3c[nH]c4ccc5nccc2c5c34)cc1
inactive: [1] 16.4 µM | [2] 39.1 µM | [3] 14 µM | [4] 24.6 µM | [6] 7.33 µM | [9] 15.4 µM | [10] 15.4 µM | [19] 13.6 µM | [11] 22.8 µM | [12] 14.7 µM | [13] 4.54 µM | [14] 29 µM | [15] 15 µM | [16] 14 µM | [17] 16.3 µM
> 100 µM: [5]

CCNCCNC(=O)c1ccc(Br)cc1
inactive: [2] > 100 µM | [3] > 100 µM | [4] > 100 µM | [6] > 100 µM | [7] > 100 µM | [8] > 100 µM | [9] > 100 µM | [10] > 100 µM | [11] > 100 µM | [12] > 100 µM | [14] > 100 µM | [15] > 100 µM | [16] > 100 µM | [20] > 100 µM | [17] > 100 µM | [18] 63.4 µM
> 100 µM: [5]

CCC(=O)c1cn(C)c(=O)c2ccccc12
> 100 µM: [5]
inactive: [1] > 100 µM | [3] > 100 µM | [4] > 100 µM | [6] > 100 µM | [7] > 100 µM | [8] > 100 µM | [9] > 100 µM | [10] > 100 µM | [11] > 100 µM | [12] > 100 µM | [13] > 100 µM | [14] > 100 µM | [15] > 100 µM | [16] > 100 µM | [20] > 100 µM | [17] > 100 µM | [18] 36.5 µM

CC(=O)Oc1ccc2[nH]c3c(C)c4cccc-4ccc3c2c1
inactive: [1] 1.96 µM | [2] 2.64 µM | [3] 1.84 µM | [4] 1.99 µM | [7] 4.59 µM | [8] 1.82 µM | [10] 1.38 µM | [11] 2.02 µM | [12] 1.83 µM | [13] 1.78 µM | [14] 2.72 µM | [15] 3.7 µM | [16] 2.47 µM | [20] 2.18 µM | [17] 1.81 µM
2.24 µM: [5]

CSc1cnc2ccccc2c1Sc1c[nH]c2ccccc2c1=O
inactive: [1] 10.4 µM | [3] 14.1 µM | [4] 11.3 µM | [6] 4.52 µM | [7] 3.96 µM | [8] 13.7 µM | [9] 6.49 µM | [10] 7.31 µM | [11] 24.4 µM | [12] 6.25 µM | [13] 6.55 µM | [14] 3.3 µM | [15] 3.56 µM | [16] 11.8 µM | [20] 12.9 µM | [17] 4.03 µM | [18] 2.79 µM
7.1 µM: [5]
